Assay results reported in patent publication US3997506A (priority 1974, dated 1976).
Values joined by “and” are separate entries in the source; they are usually repeats but may differ in a detail not shown here. Equal entries are not always repeated. Where two headings read alike, the source gives them in different places.

How the values were obtained:
[1] = test system: phagocytosis by peritoneal macrophages of mice; type: cell-based; conditions: for % phagocytosis with respect to controls (= 100%): 80 min
leucocytes from rats [2] = type: in vivo, Sprague Dawley SIV 50 he-rats; conditions: 2 mg/kg oral
[3] = test system: Sprague Dawley SIV 50 rat; type: in vivo, male and female Sprague Dawley SIV 50 rat
Text: The high toxicity of the new derivative of colchicine (N-desacetyl-N-adamantoyl-thiocolchicine) has been investigated through the oral way with the male and female Sprague Dawley SIV 50 rat having an average weight of 100 g.
Two experiments have been carried out. In the first one, only the high toxicity of the derivative has been studied; in the second one, the high toxicity of the derivative has been compared with that of colchicine.
The derivative and colchicine have been administered in suspension in propylene glycol through an oesophageal tube at the rate of 2 ml per rat for the first experiment and of 1 ml for the second one.
The animals have been observed for 10 days.

in vitro [4] = type: cell-based, human; conditions: human, leucocytes, read-out: % of dead cells
Protocol: (§1) The cytotoxicity has been investigated on human leucocytes by means of the viability test with Trypan blue.
(§2) a. In a first experimentation cultures of leucocytes of a voluntary […] were prepared and caused to undergo incubation with phytohemagglutinin (PHA) and with different concentrations of colchicine or of its derivative (C1 = 2.5 μg/ml of culture, C3 = 10 μg/ml, C5 = 30 μg/ml, C6 = 50 μg/ml). Leucocytes only containing PHA served as controls.
(§3) After 3, 42, 68 and 72 hours of incubation a sample of each culture was contacted by a drop of Trypan blue and laid on a slide of a microscope. Then took place the counting of the dead cells (those with assumed an […] colour) and of all the cells present on the slide in order to obtain the ratio of the number of dead cells to the total number of cells. The results expressed as a rate in per cent are shown in the accompanying table 8.
(§4) b. After the experimentation which has just been described, the study of cytotoxicity has been continued with two other samples of human leucocytes still by means of the viability test with Trypan blue.
(§5) C1 = 2.5 μg/ml of culture
(§6) C6 = 50 μg/ml of culture;
(§7) and for the carboxy-1-adamantane fraction to:
(§8) C3 = 4.5 μg/ml of culture
(§9) C6 = 22.5 μg/ml of culture.
(§10) Leucocytes only containing phytohemagglutinin and others containing phytohemagglutinin and 50 μl of methanol served as controls.
(§11) The percentage of dead cells was determined after different numbers of hours of incubation.

human leucocytes [5] = experiment: in vitro; type: cell-based
Protocol: as §1, §2, §3, §4, §5, §6, §7, §8, §9, §10, §11

human leucocytes [6] = conditions: 0.01 μg/ml to 10 μg/ml; up to 30 hours; no PHA
leucocytes from rats [7] = conditions: individual rat, 2 mg/kg oral, 2 mg/kg
leucocytes from rats [8] = conditions: 6 hours after administration, 2 mg/kg oral
in vitro [9] = conditions: human, leucocytes, % of dead cells (Average of 2 determinations), no PHA
[10] = first experimentation, C1 = 2.5 μg/ml
[11] = first experimentation, C3 = 10 μg/ml
[12] = first experimentation, C5 = 30 μg/ml
[13] = first experimentation, C6 = 50 μg/ml

COc1cc2c(c(OC)c1OC)-c1ccc(OC)c(=O)cc1[C@@H](NC(C)=O)CC2 [Colchicine, colchicine, reference compound]
inhibition of phagocytosis ([1]; 0.004 μg): 15% | % phagocytosis with respect to controls (= 100%) ([1]; 0.004 μg, Experimentation III): 87.6% | % phagocytosis with respect to controls (= 100%) ([1]; 0.004 μg, Experimentation IV): 81.6% | % phagocytosis with respect to controls (= 100%) ([1]; 0.04 μg, Experimentation III): 65% | % phagocytosis with respect to controls (= 100%) ([1]; 0.04 μg, Experimentation IV): 78.9% | % phagocytosis with respect to controls (= 100%) ([1]; 0.04 μg, Experimentation V): 79.5% | % phagocytosis with respect to controls (= 100%) ([1]; 0.4 μg, Experimentation III): 44.7% | % phagocytosis with respect to controls (= 100%) ([1]; 0.4 μg, Experimentation IV): 54.3% | % phagocytosis with respect to controls (= 100%) ([1]; 0.4 μg, Experimentation V): 54.4% | inhibition of phagocytosis ([1]; 4 μg): 65% | % phagocytosis with respect to controls (= 100%) ([1]; 4 μg, Experimentation II): 36.9% | % phagocytosis with respect to controls (= 100%) ([1]; 4 μg, Experimentation III): 34.5% | % phagocytosis with respect to controls (= 100%) ([1]; 4 μg, Experimentation IV): 32.2% | % phagocytosis with respect to controls (= 100%) ([1]; 4 μg, Experimentation V): 38.2% | % phagocytosis with respect to controls (= 100%) ([1]; 5 μg, Experimentation II): 30.3% | % phagocytosis with respect to controls (= 100%) ([1]; 10 μg, Experimentation II): 33.7% | % phagocytosis with respect to controls (= 100%) ([1]; 12.5 μg, Experimentation I): 36.5% | % phagocytosis with respect to controls (= 100%) ([1]; 20 μg, Experimentation II): 33.4% | % phagocytosis with respect to controls (= 100%) ([1]; 30 μg, Experimentation II): 36.2% | inhibition of phagocytosis ([1]; 40 μg): 67% | % phagocytosis with respect to controls (= 100%) ([1]; 40 μg, Experimentation II): 32.0% | % phagocytosis with respect to controls (= 100%) ([1]; 40 μg, Experimentation III): 33.2% | % phagocytosis with respect to controls (= 100%) ([1]; 40 μg, Experimentation IV): 33.8% | cpm / number of lymphocytes, mean (leucocytes from rats [2]; 6 hours after administration, group mean, factor and spread printed on following lines): 2.72 × 10^-^2 cpm/number of lymphoc | Number of lymphocytes/culture (leucocytes from rats [2]; 6 hours after administration, individual rat, 2 mg/kg): 148,200 lymphocytes/culture and 108,240 lymphocytes/culture | cpm / number of lymphocytes (immunity response) (leucocytes from rats [2]; 6 hours after administration, individual rat, factor × 10^-^2, 2 mg/kg): 5.03 × 10^-^2 cpm/number of lymphoc and 0.40 × 10^-^2 cpm/number of lymphoc | Number of lymphocytes/culture (leucocytes from rats [2]; before administration, individual rat, 2 mg/kg): 103,960 lymphocytes/culture and 163,400 lymphocytes/culture and 156,400 lymphocytes/culture | rats dead after 24 hours ([3]; 100 mg/kg oral): 1 rat | rats dead after 48 hours ([3]; 100 mg/kg oral): 5 rats | rats dead after 24 hours ([3]; 500 mg/kg oral): 5 rats | rats dead after 48 hours ([3]; 500 mg/kg oral): 1 rat | cytotoxicity at 4 h (in vitro [4]; Culture I, C3 = 10 μg/ml): 6% | cytotoxicity at 4 h (in vitro [4]; Culture I, C6 = 50 μg/ml): 9% | cytotoxicity at 22 h (in vitro [4]; Culture I, C3 = 10 μg/ml): 5% | cytotoxicity at 22 h (in vitro [4]; Culture I, C6 = 50 μg/ml): 7% | cytotoxicity at 46 h (in vitro [4]; Culture I, C3 = 10 μg/ml): 24% | cytotoxicity at 46 h (in vitro [4]; Culture I, C6 = 50 μg/ml): 19% | cytotoxicity at 76 h (in vitro [4]; Culture I, C3 = 10 μg/ml): 24% | cytotoxicity at 76 h (in vitro [4]; Culture I, C6 = 50 μg/ml): 23% | cytotoxicity at 23 h (in vitro [4]; Culture II, C1 = 2.5 μg/ml): 3% | cytotoxicity at 23 h (in vitro [4]; Culture II, C3 = 10 μg/ml): 4% | cytotoxicity at 23 h (in vitro [4]; Culture II, C5 = 30 μg/ml): 5% | cytotoxicity at 46 h (in vitro [4]; Culture II, C1 = 2.5 μg/ml): 11% | cytotoxicity at 46 h (in vitro [4]; Culture II, C3 = 10 μg/ml): 8% | cytotoxicity at 46 h (in vitro [4]; Culture II, C5 = 30 μg/ml): 11% | cytotoxicity at 72 h (in vitro [4]; Culture II, C1 = 2.5 μg/ml): 13% | cytotoxicity at 72 h (in vitro [4]; Culture II, C3 = 10 μg/ml): 14% | cytotoxicity at 72 h (in vitro [4]; Culture II, C5 = 30 μg/ml): 18% | cytotoxicity at 3 h (in vitro [4]; [10]): 1% | cytotoxicity at 3 h (in vitro [4]; [11]): 1% | cytotoxicity at 3 h (in vitro [4]; [12]): 0% | cytotoxicity at 3 h (in vitro [4]; [13]): 0% | cytotoxicity at 42 h (in vitro [4]; [10]): 3% | cytotoxicity at 42 h (in vitro [4]; [11]): 2% | cytotoxicity at 42 h (in vitro [4]; [12]): 10% | cytotoxicity at 42 h (in vitro [4]; [13]): 2% | cytotoxicity at 68 h (in vitro [4]; [10]): 6% | cytotoxicity at 68 h (in vitro [4]; [11]): 9% | cytotoxicity at 68 h (in vitro [4]; [12]): 9% | cytotoxicity at 68 h (in vitro [4]; [13]): 21% | cytotoxicity at 72 h (in vitro [4]; [10]): 7% | cytotoxicity at 72 h (in vitro [4]; [12]): 18% | cytotoxicity at 72 h (in vitro [4]; [13]): 24% | cytotoxicity, cultures I and II (in words) (human leucocytes [5]; Cultures I and II): practically identical with that due to the methanol | cytotoxicity, colchicine versus derivative (in words) (human leucocytes [5]; [10]): substantially the same | cytotoxicity (in words) (human leucocytes [6]): no cytotoxicity is detectable | Leucocytes / mm^3 (leucocytes from rats [7]; experiment 1, 6 hours after administration): 9,500 / mm^3 and 7,900 / mm^3 and 7,750 / mm^3 | Leucocytes / mm^3 (leucocytes from rats [7]; experiment 1, before administration): 16,600 / mm^3 and 10,450 / mm^3 and 10,000 / mm^3 | Leucocytes / mm^3 (leucocytes from rats [7]; experiment 2, 6 hours after administration): 7,950 / mm^3 and 6,950 / mm^3 and 8,900 / mm^3 | Leucocytes / mm^3 (leucocytes from rats [7]; experiment 2, before administration): 9,000 / mm^3 and 7,050 / mm^3 and 9,950 / mm^3 | Leucocytes / mm^3 (leucocytes from rats [7]; experiment 3, 6 hours after administration): 9,750 / mm^3 and 13,750 / mm^3 | Leucocytes / mm^3 (leucocytes from rats [7]; experiment 3, before administration): 10,750 / mm^3 and 8,500 / mm^3 and 15,250 / mm^3 | cytotoxic effect (in words) (leucocytes from rats [8]): no cytotoxic effect has been noticed | % of dead cells (leucocytes from rats [8]; individual rat, 2 mg/kg, 360 min): 1% and 2% and 0% | cytotoxicity at 6 h (in vitro [9]; C1 = 0.01 μg/ml): 1% | cytotoxicity at 6 h (in vitro [9]; C2 = 0.1 μg/ml): 0% | cytotoxicity at 6 h (in vitro [9]; C3 = 0.5 μg/ml): 2% | cytotoxicity at 6 h (in vitro [9]; C4 = 1.0 μg/ml): 1% | cytotoxicity at 6 h (in vitro [9]; C5 = 2.5 μg/ml): 1% | cytotoxicity at 6 h (in vitro [9]; C6 = 10.0 μg/ml): 1% | cytotoxicity at 30 h (in vitro [9]; C1 = 0.01 μg/ml): 55% | cytotoxicity at 30 h (in vitro [9]; C2 = 0.1 μg/ml): 68% | cytotoxicity at 30 h (in vitro [9]; C3 = 0.5 μg/ml): 54% | cytotoxicity at 30 h (in vitro [9]; C4 = 1.0 μg/ml): 59% | cytotoxicity at 30 h (in vitro [9]; C5 = 2.5 μg/ml): 60% | cytotoxicity at 30 h (in vitro [9]; C6 = 10.0 μg/ml): 46% | cytotoxicity at 48 h (in vitro [9]; C1 = 0.01 μg/ml): 93% | cytotoxicity at 48 h (in vitro [9]; C2 = 0.1 μg/ml): 93% | cytotoxicity at 48 h (in vitro [9]; C3 = 0.5 μg/ml): 91% | cytotoxicity at 48 h (in vitro [9]; C4 = 1.0 μg/ml): 95% | cytotoxicity at 48 h (in vitro [9]; C5 = 2.5 μg/ml): 92% | cytotoxicity at 48 h (in vitro [9]; C6 = 10.0 μg/ml): 92%
